From paper PMC7367369, “A small library of chalcones induce liver cancer cell death through Akt phosphorylation inhibition” (Scientific Reports, 2020)
Where two headings read alike, the source gives them in different places.

What was measured:
Mahlavu [1] = assay: Real-time cell electronic sensing (RT-CES) growth analysis, Mahlavu; type: cell-based; settings: Homo sapiens
Method: The selected 3 compounds were further analyzed with real-time cell electronic sensing (RT-CES) system to assess the real-time growth behavior of the cells treated with the compounds. Huh7 and Mahlavu liver cancer cells were treated with the selected chalcones and monitored with RT-CES. Results of the compounds were normalized to data of negative control DMSO.
Figure 2 Real-time cell growth analysis. Human liver cancer cells Huh7 (left panel) and Mahlavu (right panel) were treated with the selected compounds. Cell index measurements were obtained by RT-CES software. DMSO was used as negative control. (A) The growth inhibition values of the compounds were obtained by the normalization with DMSO. Experiments were performed in triplicate. (B) IC50 values calculated from RT-CES experiment data. TEXT PRINTED IN THE PICTURE: (B) 1: Huh7 24h: 3.7; Huh7 72h: 5.2; Mahlavu 24h: 1.2; Mahlavu 72h: 2.3 | (B) 9: Huh7 24h: 16.1; Huh7 72h: 11.5; Mahlavu 24h: 4.9; Mahlavu 72h: 6.8 | (B) 11: Huh7 24h: 8.7; Huh7 72h: 8.8; Mahlavu 24h: 4.9; Mahlavu 72h: 6.8 DOUBTS OF THE COPYIST ABOUT THIS PICTURE: Panel B table: the picture prints no measure and no unit for the values
Huh7 and Mahlavu cells were inoculated into the e-plate (1000–2000 cells/well). The attachment, spreading, and proliferation of the cells were monitored every 30 minutes using the Xcelligence® Real-Time Cell Analysis system (ACEA Biosciences Inc.) in a cell culture incubator. […] When cells reach to an cell index (CI) impedance values about 1.5 usually in 24 hours cells were treated with the chalcones 1, 9 and 11. DMSO was used as a negative control. Each experiment was repeated three times. The CI value was noted every 10 minutes for the first 24 hours and then every 30 minutes upon chalcone treatments. The cell inhibition rate calculated as follows (%)=[1-(CItreatedcells/CIDMSO)]×100 .

Mahlavu and Huh7 cells = assay: Cell cycle analysis (propidium iodide); type: cell-based, human; settings: Mahlavu and Huh7, IC50 concentrations, 72 h
Method: Human liver cancer cells Mahlavu and Huh7 were treated with the compounds according to the IC50 values obtained from RT-CES experiments or DMSO controls for 72hr. […] We further assessed the effects of the selected chalcones 1, 9, and 11 on the cell cycle progression analysis of liver cancer cells. Human liver cancer cells Mahlavu and Huh7 were treated with the compounds according to the IC50 values obtained from RT-CES for 72 h. Then the DNA in the treated cells were stained with propidium iodide and analyzed with fluorescent-activated cell sorter. […] In order to confirm the induction of apoptosis in human liver cancer cells treated with the chalcones, cleavage of PARP protein (marker of apoptosis) was investigated.
Figure 3 Cell death induced by the chalcones. (A) Nuclear staining of the liver cancer cells treated with the chalcones. Human liver cancer cells (Huh7 and Mahlavu) were treated with the IC50 concentrations of the chalcones 1, 9, 11. After 72 h of incubation with the compounds or DMSO control, Hoechst (33258) staining was performed. Images were taken with fluorescent microscope (×40). Due to the strong cytotoxic activities of the chalcones the number of the cells in objective area was much less than DMSO controls. (B) Cell cycle distribution of liver cancer cells. Huh7 and Mahlavu cells were treated for 72 h with IC50 concentrations of the compounds or DMSO control. SubG1 cell cycle arrest was observed upon treatment with the compounds (blue). (C) Investigation of PARP cleavage in Huh7 and Mahlavu cells treated with the selected chalcones for 24 h.
Then samples were stained with propidium iodide which binds to DNA and analyzed with MUSE® Cell Cycle Assay Kit (EMD Milipore).

Hep3B = assay: NCI-60 sulforhodamine B (SRB) cytotoxicity assay, Hep3B; type: cell-based, human; settings: Homo sapiens, Hep3B; SRB, 72 h, 2.5–40 μM, triplicate; read-out: IC50 Hep3B
Method: (§1) The bioactivities of the synthesized chalcones were assessed on human liver cancer cell lines and on DPSCs with NCI-SRB assay in vitro. DPSCs used to asses the bioactivity of chalcones on untransformed control cells with the potential of hepatic lineage. […] We also included 5-Fluorouracil which is used in clinics for gastrointestinal cancers and Sorafenib. All results were normalized to DMSO negative control measurements. The experiment was performed in triplicate.
(§2) Well differentiated human primary liver cancer cell lines Huh7, HepG2 and Hep3B, and poorly differentiated Mahlavu, FOCUS and SNU475 HCC cells were cultured in Dulbecco’s Modified Eagle’s Standard (DMEM) medium supplemented with 10% Fetal Bovine Serum (FBS), 100 units/mL penicillin and 100 µg/mL streptomycin (Gibco, Invitrogen, Carlsbad, CA, USA). 0.1 mM nonessential amino acids (NEAA) which are specific to HCC cell lines also added to culture media. Cells were cultured in a 5% CO2 incubator at 37^∘C
(§3) Primary liver cancer cells Huh7, HepG2, Hep3B, Mahlavu, FOCUS, Snu475 along with hepatic progenitor Dental pulp stem cells were seeded into 96-well plates (1,000–3,000 HCC cell/well and 10,000 cells DPSC/well ) for 24 h. The cells were then treated with increasing concentrations of the chalcones ( 2.5-40μM ). DMSO (AppliChem Biochemica, Darmstadt, Germany) was used as negative control. The growth has stopped at the end of 72 h by fixing cold with 10% (v/v) trichloroacetic acid (Merck, Schuchardt, Germany). Cells were then stained with 0.4% (m/v) of sulforhodamine (Sigma-Aldrich, St. Louis, USA) in 1% acetic acid solution. […] All experiments were done in triplicate.

Huh7 = assay: NCI-60 sulforhodamine B (SRB) cytotoxicity assay, Huh7; type: cell-based, human; settings: Homo sapiens, read-out: IC50 Huh7
Method: as §1, §2
Primary liver cancer cells Huh7, HepG2, Hep3B, Mahlavu, FOCUS, Snu475 along with hepatic progenitor Dental pulp stem cells were seeded into 96-well plates (1,000–3,000 HCC cell/well and 10,000 cells DPSC/well ) for 24 h. The cells were then treated with increasing concentrations of the chalcones ( 2.5-40μM ). DMSO (AppliChem Biochemica, Darmstadt, Germany) was used as negative control. The growth has stopped at the end of 72 h by fixing cold with 10% (v/v) trichloroacetic acid (Merck, Schuchardt, Germany). Cells were then stained with 0.4% (m/v) of sulforhodamine (Sigma-Aldrich, St. Louis, USA) in 1% acetic acid solution. The absorbency values were acquired at 515 nm. All experiments were done in triplicate.

Mahlavu [2] = assay: NCI-60 sulforhodamine B (SRB) cytotoxicity assay, Mahlavu; type: cell-based, human; settings: Homo sapiens, Mahlavu; SRB, 72 h, 2.5–40 μM, triplicate; read-out: IC50 Mahlavu
Method: as §1, §2, §3

[3] = 24h, read-out: IC50 values calculated from RT-CES experiment data, Mahlavu 24h
[4] = 72h, read-out: IC50 values calculated from RT-CES experiment data, Mahlavu 72h
[5] = Huh-7, SRB, 72 h, 2.5–40 μM, triplicate

With O=C(/C=C/c1ccc(Cl)cc1)c1ccccc1 [compound 11] the IC50 (Mahlavu [1]; [3]) was 4.9 µM, the IC50 (Mahlavu [1]; [4]) was 6.8 µM and the cell cycle progression (Mahlavu and Huh7 cells) was “induced SubG1 cell cycle arrest”. It also gave an IC50 (Hep3B) of 5.9 µM, an IC50 (Huh7; [5]) of 4.3 µM and an IC50 (Mahlavu [2]) of 5.3 µM.
In the case of COc1ccc(C(=O)/C=C/c2cccc([N+](=O)[O-])c2)cc1 [compound 1], the IC50 (Mahlavu [1]; [3]) is reported as 1.2 µM, the IC50 (Mahlavu [1]; [4]) is reported as 2.3 µM and the cell cycle progression (Mahlavu and Huh7 cells) is reported as “induced SubG1 cell cycle arrest”. For the same compound, the IC50 (Hep3B) was 6.2 µM, the IC50 (Huh7; [5]) was < 2.5 µM and the IC50 (Mahlavu [2]) was < 2.5 µM.
With O=C(/C=C/c1ccccc1)c1ccccc1 [compound 9] the IC50 (Mahlavu [1]; [3]) was 4.9 µM, the IC50 (Mahlavu [1]; [4]) was 6.8 µM and the cell cycle progression (Mahlavu and Huh7 cells) was “induced SubG1 cell cycle arrest”. The IC50 (Hep3B) was 7.3 µM, the IC50 (Huh7; Huh-7, 72 h) was 5.3 µM and the IC50 (Mahlavu [2]) was 6.3 µM.
